Drawing on US8048892B2, “Azaquinolone based compounds exhibiting prolyl hydroxylase inhibitory activity, compositions, and uses thereof” (Amgen Inc., priority 2006, dated 2011), this text covers IC50 for 24 compounds.

The assay has as its target HIF PHD2 (Homo sapiens, UniProt Q9GZT9). The assay can be described thus: PHD2 inhibition assay (TR-FRET, VCB-Eu detection of hydroxylated P564-HIF1α peptide). Format: biochemical. The note with it: 2 nM PHD2, 100 nM P564-HIF1α peptide, 0.25 μM 2-oxoglutarate. Summed up: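 Human PHD2 (2 nM final) preincubated 1 h at room temperature with compound and 100 μM FeCl2 in pH 6 MES buffer, 5% DMSO final. Reaction with 100 nM biotinylated P564-HIF1α peptide, 2 mM ascorbate and 0.25 μM 2-oxoglutarate for 1 h, stopped with succinate. Hydroxylation read by TR-FRET (VCB-Eu/streptavidin-APC, 655/615 nm); IC50 from 4-parameter fit of percent of control.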

Structures can show the parent of a compound that is named as a salt.

HIF PHD2, sequence (Q9GZT9 whole entry): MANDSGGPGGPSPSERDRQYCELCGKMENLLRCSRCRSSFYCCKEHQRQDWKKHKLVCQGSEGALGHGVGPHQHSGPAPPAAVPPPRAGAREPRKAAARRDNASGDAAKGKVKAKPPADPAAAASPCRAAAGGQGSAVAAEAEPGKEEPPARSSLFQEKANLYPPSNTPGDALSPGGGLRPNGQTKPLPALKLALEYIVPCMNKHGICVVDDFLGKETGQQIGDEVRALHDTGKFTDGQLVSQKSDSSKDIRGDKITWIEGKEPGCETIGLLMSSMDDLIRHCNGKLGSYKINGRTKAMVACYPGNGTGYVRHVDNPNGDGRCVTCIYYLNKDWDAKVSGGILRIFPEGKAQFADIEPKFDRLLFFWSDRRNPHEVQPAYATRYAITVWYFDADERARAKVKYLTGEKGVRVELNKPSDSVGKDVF

For `O=C(O)CNC(=O)c1c(O)c2ccc(C(F)(F)F)nc2[nH]c1=O` [Example 87, 2-(4-Hydroxy-2-oxo-7-(trifluoromethyl)-1,2-dihydro-1,8-naphthyridine-3-carboxamido)acetic acid], the half-inhibitory concentration (IC50) is < 50 nM. The result for `C[C@H](NC(=O)c1c(O)c2ccc(C(F)(F)F)nc2[nH]c1=O)C(=O)O` [Example 88, (S)-2-(4-Hydroxy-2-oxo-7-(trifluoromethyl)-1,2-dihydro-1,8-naphthyridine-3-carboxamido)propanoic acid] reads 100 to 500 nM. For `C[C@H](NC(=O)c1c(O)c2ccc(C(F)(F)F)nc2n(C)c1=O)C(=O)O` [Example 89, (S)-2-(4-Hydroxy-1-methyl-2-oxo-7-(trifluoromethyl)-1,2-dihydro-1,8-naphthyridine-3-carboxamido)propanoic acid], the IC50 is 50 to 100 nM. Regarding `Cn1c(=O)c(C(=O)NCC(=O)O)c(O)c2cc(-c3ccccc3)c(C(F)(F)F)nc21` [Example 90, 2-(4-Hydroxy-1-methyl-2-oxo-6-phenyl-7-(trifluoromethyl)-1,2-dihydro-1,8-naphthyridine-3-carboxamido)acetic acid], the half-inhibitory concentration (IC50) is < 50 nM. Regarding `Cn1c(=O)c(C(=O)NCC(=O)O)c(O)c2cc(-c3cccnc3)c(C(F)(F)F)nc21` [Example 91, 2-(4-Hydroxy-1-methyl-2-oxo-6-(pyridin-3-yl)-7-(trifluoromethyl)-1,2-dihydro-1,8-naphthyridine-3-carboxamido)acetic acid], the concentration for half-maximal inhibition (IC50) is < 50 nM. On to `Cc1ncccc1-c1cc2c(O)c(C(=O)NCC(=O)O)c(=O)n(C)c2nc1C(F)(F)F` [Example 92, 2-(4-Hydroxy-1-methyl-6-(2-methylpyridin-3-yl)-2-oxo-7-(trifluoromethyl)-1,2-dihydro-1,8-naphthyridine-3-carboxamido)acetic acid], for which the IC50 was < 50 nM. In the case of `Cn1c(=O)c(C(=O)NCC(=O)O)c(O)c2cc(C3CC3)c(C(F)(F)F)nc21` [Example 93, 2-(6-cyclopropyl-4-hydroxy-1-methyl-2-oxo-7-(trifluoromethyl)-1,2-dihydro-1,8-naphthyridine-3-carboxamido)acetic acid], the IC50 was in the range of 50 to 100 nM.

Turning to `Cn1c(=O)c(C(=O)NCC(=O)O)c(O)c2cc(Br)c(C(F)(F)F)nc21` [Example 94, 2-(6-Bromo-4-hydroxy-1-methyl-2-oxo-7-(trifluoromethyl)-1,2-dihydro-1,8-naphthyridine-3-carboxamido)acetic acid], the 50% inhibitory concentration (IC50) is < 50 nM. Compound `Cn1c(=O)c(C(=O)NCC(=O)O)c(O)c2cc(C3CCCCC3)c(C(F)(F)F)nc21` [Example 95, 2-(6-Cyclohexyl-4-hydroxy-1-methyl-2-oxo-7-(trifluoromethyl)-1,2-dihydro-1,8-naphthyridine-3-carboxamido)acetic acid] had an IC50 of 100 to 500 nM.

As for `Cn1c(=O)c(C(=O)NCC(=O)O)c(O)c2cc(C3=CCCCC3)c(C(F)(F)F)nc21` [Example 96, 2-(6-Cyclohexenyl-4-hydroxy-1-methyl-2-oxo-7-(trifluoromethyl)-1,2-dihydro-1,8-naphthyridine-3-carboxamido)acetic acid], the half-maximal inhibitory concentration (IC50) was < 50 nM. The result for `Cn1c(=O)c(C(=O)NCC(=O)O)c(O)c2cc(C#CC3CC3)c(C(F)(F)F)nc21` [Example 97, 2-(6-(2-Cyclopropylethynyl)-4-hydroxy-1-methyl-2-oxo-7-(trifluoromethyl)-1,2-dihydro-1,8-naphthyridine-3-carboxamido)acetic acid] reads < 50 nM; that for `Cn1c(=O)c(C(=O)NCC(=O)O)c(O)c2cc(C3CCCC3)c(C(F)(F)F)nc21` [Example 98, 2-(6-Cyclopentyl-4-hydroxy-1-methyl-2-oxo-7-(trifluoromethyl)-1,2-dihydro-1,8-naphthyridine-3-carboxamido)acetic acid], 100 to 500 nM; that for `Cn1c(=O)c(C(=O)NCC(=O)O)c(O)c2cc(-c3ccccc3)ncc21` [Example 105, N-((4-Hydroxy-1-methyl-2-oxo-6-phenyl-1,2-dihydro-1,7-naphthyridin-3-yl)carbonyl)glycine], < 50 nM. The result for `Cc1ccccc1-c1cc2c(O)c(C(=O)NCC(=O)O)c(=O)n(C)c2cn1` [Example 106, N-((4-Hydroxy-1-methyl-6-(2-methylphenyl)-2-oxo-1,2-dihydro-1,7-naphthyridin-3-yl)carbonyl)glycine] reads < 50 nM. `Cn1c(=O)c(C(=O)NCC(=O)O)c(O)c2cc(-c3cccnc3)ncc21` [Example 107, N-((4-Hydroxy-1-methyl-2-oxo-6-(3-pyridinyl)-1,2-dihydro-1,7-naphthyridin-3-yl)carbonyl)glycine] registered an IC50 of 50 to 100 nM. To `Cn1c(=O)c(C(=O)NCC(=O)O)c(O)c2cc(-c3ccc4c(c3)CCO4)ncc21` [Example 108, N-((6-(2,3-Dihydro-1-benzofuran-5-yl)-4-hydroxy-1-methyl-2-oxo-1,2-dihydro-1,7-naphthyridin-3-yl)carbonyl)glycine] belongs < 50 nM; to `Cn1c(=O)c(C(=O)NCC(=O)O)c(O)c2cc(-c3cccs3)ncc21` [Example 109, N-((4-Hydroxy-1-methyl-2-oxo-6-(2-thienyl)-1,2-dihydro-1,7-naphthyridin-3-yl)carbonyl)glycine], < 50 nM; to `Cn1c(=O)c(C(=O)NCC(=O)O)c(O)c2cc(-c3ccc(OC(F)(F)F)cc3)ncc21` [Example 110, 2-(4-Hydroxy-1-methyl-2-oxo-6-(4-(trifluoromethoxy)phenyl)-1,2-dihydro-1,7-naphthyridine-3-carboxamido)acetic acid, Trifluoroacetic acid salt.], < 50 nM. For the compound `Cn1c(=O)c(C(=O)NCC(=O)O)c(O)c2cc(Cl)ncc21` [Example 111, 2-(6-Chloro-4-hydroxy-1-methyl-2-oxo-1,2-dihydro-1,7-naphthyridine-3-carboxamido)acetic acid], the IC50 is < 50 nM. `Cn1c(=O)c(C(=O)NCC(=O)O)c(O)c2ccncc21` [Example 112, N-((4-Hydroxy-1-methyl-2-oxo-1,2-dihydro-1,7-naphthyridin-3-yl)carbonyl)glycine] yielded an IC50 of 50 to 100 nM. The result for `CC(C)c1cc2c(O)c(C(=O)NCC(=O)O)c(=O)n(C)c2cn1` [Example 113, N-((4-Hydroxy-1-methyl-6-(1-methylethyl)-2-oxo-1,2-dihydro-1,7-naphthyridin-3-yl)carbonyl)glycine] reads < 50 nM; that for `Cn1c(=O)c(C(=O)NCC(=O)O)c(O)c2cc(C3=CCNCC3)ncc21` [Example 114, 2-(4-Hydroxy-1-methyl-2-oxo-6-(1,2,3,6-tetrahydropyridin-4-yl)-1,2-dihydro-1,7-naphthyridine-3-carboxamido)acetic acid, Trifluoroacetic acid salt], 50 to 100 nM; that for `Cn1c(=O)c(C(=O)NCC(=O)O)c(O)c2cc(C3CCNCC3)ncc21` [Example 115, 2-(4-Hydroxy-1-methyl-2-oxo-6-(piperidin-4-yl)-1,2-dihydro-1,7-naphthyridine-3-carboxamido)acetic acid, Trifluoroacetic acid salt], 50 to 100 nM. To `CN1CC=C(c2cc3c(O)c(C(=O)NCC(=O)O)c(=O)n(C)c3cn2)CC1` [Example 116, 2-(4-Hydroxy-1-methyl-6-(1-methyl-1,2,3,6-tetrahydropyridin-4-yl)-2-oxo-1,2-dihydro-1,7-naphthyridine-3-carboxamido)acetic acid, Trifluoroacetic acid salt] belongs < 50 nM.
